Reference: article PMC10504751, “Chalcone/1,3,4-Oxadiazole/Benzimidazole hybrids as novel anti-proliferative agents inducing apoptosis and inhibiting EGFR & BRAFV^600E” (BMC Chemistry, 2023)

Tests used:
Assay in all cases: NCI one-dose SRB anti-proliferative screen
Assay type in all cases: cell-based
786-0 = conditions: Homo sapiens; 786-0, Renal cancer; NCI one dose; read-out: Cell growth inhibition %
Procedure, shortened: (§1)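 Colorimetric sulforhodamine B assay after treatment with compound at one concentration, 10 µM.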

UACC-257 = conditions: Homo sapiens; UACC-257, Melanoma; NCI one dose; read-out: Cell growth inhibition %
Procedure, shortened: as §1

SF-295 = conditions: Homo sapiens; SF-295, CNS Cancer; NCI one dose; read-out: Cell growth inhibition %
Procedure, shortened: as §1

NCI-H226 = conditions: Homo sapiens; NCI-H226, Non-Small Cell Lung Cancer; NCI one dose; read-out: Cell growth inhibition %
Procedure, shortened: as §1

OVCAR-8 = conditions: Homo sapiens; OVCAR-8, Ovarian Cancer; NCI one dose; read-out: Cell growth inhibition %
Procedure, shortened: as §1

MDA-MB-468 = conditions: Homo sapiens; MDA-MB-468, Breast cancer; NCI one dose; read-out: Cell growth inhibition %
Procedure, shortened: as §1

KM12 = conditions: Homo sapiens; KM12, Colon cancer; NCI one dose; read-out: Cell growth inhibition %
Procedure, shortened: as §1

CCRF-CEM = conditions: Homo sapiens; CCRF-CEM, Leukemia; NCI one dose; read-out: Cell growth inhibition %
Procedure, shortened: as §1

SK-MEL-2 = conditions: Homo sapiens; SK-MEL-2, Melanoma; NCI one dose; read-out: Cell growth inhibition %
Procedure, shortened: as §1

NCI-H23 = conditions: Homo sapiens; NCI-H23, Non-Small Cell Lung Cancer; NCI one dose; read-out: Cell growth inhibition %
Procedure, shortened: as §1

BT-549 = conditions: Homo sapiens; BT-549, Breast cancer; NCI one dose; read-out: Cell growth inhibition %
Procedure, shortened: as §1

CAKI-1 = conditions: Homo sapiens; CAKI-1, Renal cancer; NCI one dose; read-out: Cell growth inhibition %
Procedure, shortened: as §1

OVCAR-3 = conditions: Homo sapiens; OVCAR-3, Ovarian Cancer; NCI one dose; read-out: Cell growth inhibition %
Procedure, shortened: as §1

DU-145 = conditions: Homo sapiens; DU-145, Prostate Cancer; NCI one dose; read-out: Cell growth inhibition %
Procedure, shortened: as §1

NCI-H460 = conditions: Homo sapiens; NCI-H460, Non-Small Cell Lung Cancer; NCI one dose; read-out: Cell growth inhibition %
Procedure, shortened: as §1

OVCAR-4 = conditions: Homo sapiens; OVCAR-4, Ovarian Cancer; NCI one dose; read-out: Cell growth inhibition %
Procedure, shortened: as §1

HCT-15 = conditions: Homo sapiens; HCT-15, Colon cancer; NCI one dose; read-out: Cell growth inhibition %
Procedure, shortened: as §1

RPMI-8226 = conditions: Homo sapiens; RPMI-8226, Leukemia; NCI one dose; read-out: Cell growth inhibition %
Procedure, shortened: as §1

HS 578T = conditions: Homo sapiens; HS 578T, Breast cancer; NCI one dose; read-out: Cell growth inhibition %
Procedure, shortened: as §1

MCF7 = conditions: Homo sapiens; MCF7, Breast cancer; NCI one dose; read-out: Cell growth inhibition %
Procedure, shortened: as §1

OVCAR-5 = conditions: Homo sapiens; OVCAR-5, Ovarian Cancer; NCI one dose; read-out: Cell growth inhibition %
Procedure, shortened: as §1

SN12C = conditions: Homo sapiens, SN 12C, Renal cancer, NCI one dose, read-out: Cell growth inhibition %
Procedure, shortened: as §1

SW-620 = conditions: Homo sapiens; SW-620, Colon cancer; NCI one dose; read-out: Cell growth inhibition %
Procedure, shortened: as §1

ACHN = conditions: Homo sapiens; ACHN, Renal cancer; NCI one dose; read-out: Cell growth inhibition %
Procedure, shortened: as §1

LOX IMVI = conditions: Homo sapiens, Melanoma, NCI one dose, read-out: Cell growth inhibition %
Procedure, shortened: as §1

IGROV1 = conditions: Homo sapiens, IGROV-1; IGROV1, Ovarian Cancer; NCI one dose; read-out: Cell growth inhibition %
Procedure, shortened: as §1

PC-3 = conditions: Homo sapiens; PC-3, Prostate Cancer; NCI one dose; read-out: Cell growth inhibition %
Procedure, shortened: as §1

HT29 = conditions: Homo sapiens, HT-29; HT29, Colon cancer; NCI one dose; read-out: Cell growth inhibition %
Procedure, shortened: as §1

UO-31 = conditions: Homo sapiens; UO-31, Renal cancer; NCI one dose; read-out: Cell growth inhibition %
Procedure, shortened: as §1

SR = conditions: Homo sapiens; SR, Leukemia; NCI one dose; read-out: Cell growth inhibition %
Procedure, shortened: as §1

U251 = conditions: Homo sapiens, U-251; U251, CNS Cancer; NCI one dose; read-out: Cell growth inhibition %
Procedure, shortened: as §1

SK-OV-3 = conditions: Homo sapiens; SK-OV-3, Ovarian Cancer; NCI one dose; read-out: Cell growth inhibition %
Procedure, shortened: as §1

O=C(CSc1nnc(-c2ccc3[nH]c(-c4ccccc4)nc3c2)o1)Nc1ccc(C(=O)/C=C/c2ccccc2)cc1 [Compound 7a, 2-{5-[2-Phenyl-1 H-benzo[d]imidazol-5-yl]-1,3,4-oxadiazol-2-ylthio}-N-{4-[(E)-3-phenylacryloyl]phenyl}acetamide]
inhibition at 10 µM (786-0): 0%
inhibition at 10 µM (UACC-257): 0%
inhibition at 10 µM (SF-295): 0%
inhibition at 10 µM (NCI-H226): 0%
inhibition at 10 µM (OVCAR-8): 0.04%
inhibition at 10 µM (MDA-MB-468): 0%
inhibition at 10 µM (KM12): 0%
inhibition at 10 µM (CCRF-CEM): 0%
inhibition at 10 µM (SK-MEL-2): 0%
inhibition at 10 µM (NCI-H23): 0%
inhibition at 10 µM (BT-549): 3.16%
inhibition at 10 µM (CAKI-1): 0%
inhibition at 10 µM (OVCAR-3): 0%
inhibition at 10 µM (DU-145): 0%
inhibition at 10 µM (NCI-H460): 0%
inhibition at 10 µM (OVCAR-4): 0%
inhibition at 10 µM (HCT-15): 0%
inhibition at 10 µM (RPMI-8226): 5.75%
inhibition at 10 µM (HS 578T): 0%
inhibition at 10 µM (MCF7): 12.4%
inhibition at 10 µM (OVCAR-5): 0%
inhibition at 10 µM (SN12C): 2.04%
inhibition at 10 µM (SW-620): 0%
inhibition at 10 µM (ACHN): 0%
inhibition at 10 µM (LOX IMVI): 2.69%
inhibition at 10 µM (IGROV1): 4.17%
inhibition at 10 µM (PC-3): 0%
inhibition at 10 µM (HT29): 0%
inhibition at 10 µM (UO-31): 12.6%
inhibition at 10 µM (SR): 0%
inhibition at 10 µM (U251): 1.83%
inhibition at 10 µM (SK-OV-3): 0%

O=C(CSc1nnc(-c2ccc3[nH]c(-c4ccccc4)nc3c2)o1)Nc1ccc(C(=O)/C=C/c2ccc(Cl)cc2)cc1 [Compound 7b, 2-{5-[2-Phenyl-1 H-benzo[d]imidazol-5-yl]-1,3,4-oxadiazol-2-ylthio}-N-{4-[(E)-3-(4-chlorophenyl)acryloyl]phenyl}acetamide]
inhibition at 10 µM (786-0): 2.96%
inhibition at 10 µM (UACC-257): 0%
inhibition at 10 µM (SF-295): 0%
inhibition at 10 µM (NCI-H226): 3.63%
inhibition at 10 µM (OVCAR-8): 2.36%
inhibition at 10 µM (MDA-MB-468): 0%
inhibition at 10 µM (KM12): 0%
inhibition at 10 µM (CCRF-CEM): 0%
inhibition at 10 µM (SK-MEL-2): 0%
inhibition at 10 µM (NCI-H23): 0%
inhibition at 10 µM (BT-549): 1.92%
inhibition at 10 µM (CAKI-1): 1.52%
inhibition at 10 µM (OVCAR-3): 0%
inhibition at 10 µM (DU-145): 0%
inhibition at 10 µM (NCI-H460): 0%
inhibition at 10 µM (OVCAR-4): 0%
inhibition at 10 µM (HCT-15): 0%
inhibition at 10 µM (RPMI-8226): 12.2%
inhibition at 10 µM (HS 578T): 0%
inhibition at 10 µM (MCF7): 16.8%
inhibition at 10 µM (OVCAR-5): 0%
inhibition at 10 µM (SN12C): 9.8%
inhibition at 10 µM (SW-620): 0%
inhibition at 10 µM (ACHN): 0%
inhibition at 10 µM (LOX IMVI): 12.9%
inhibition at 10 µM (IGROV1): 15.3%
inhibition at 10 µM (PC-3): 0.53%
inhibition at 10 µM (HT29): 0%
inhibition at 10 µM (UO-31): 25.5%
inhibition at 10 µM (SR): 3.59%
inhibition at 10 µM (U251): 7.14%
inhibition at 10 µM (SK-OV-3): 0%

COc1ccc(/C=C/C(=O)c2ccc(NC(=O)CSc3nnc(-c4ccc5[nH]c(-c6ccccc6)nc5c4)o3)cc2)cc1 [Compound 7c, 2-{5-[2-Phenyl-1 H-benzo[d]imidazol-5-yl]-1,3,4-oxadiazol-2-ylthio}-N-{4-[(E)-3-(4-methoxyphenyl)acryloyl]phenyl}acetamide]
inhibition at 10 µM (786-0): 22.6%
inhibition at 10 µM (UACC-257): 0%
inhibition at 10 µM (SF-295): 1.65%
inhibition at 10 µM (NCI-H226): 2.2%
inhibition at 10 µM (OVCAR-8): 9.58%
inhibition at 10 µM (MDA-MB-468): 0%
inhibition at 10 µM (KM12): 1.55%
inhibition at 10 µM (CCRF-CEM): 34.5%
inhibition at 10 µM (SK-MEL-2): 2.65%
inhibition at 10 µM (NCI-H23): 7.79%
inhibition at 10 µM (BT-549): 18.7%
inhibition at 10 µM (CAKI-1): 0%
inhibition at 10 µM (OVCAR-3): 0%
inhibition at 10 µM (DU-145): 0%
inhibition at 10 µM (NCI-H460): 0%
inhibition at 10 µM (OVCAR-4): 0%
inhibition at 10 µM (HCT-15): 3.81%
inhibition at 10 µM (RPMI-8226): 50.9%
inhibition at 10 µM (HS 578T): 0%
inhibition at 10 µM (MCF7): 27.5%
inhibition at 10 µM (OVCAR-5): 0%
inhibition at 10 µM (SN12C): 3.32%
inhibition at 10 µM (SW-620): 0%
inhibition at 10 µM (ACHN): 2.58%
inhibition at 10 µM (LOX IMVI): 6.46%
inhibition at 10 µM (IGROV1): 0%
inhibition at 10 µM (PC-3): 5.12%
inhibition at 10 µM (HT29): 1.01%
inhibition at 10 µM (UO-31): 8.67%
inhibition at 10 µM (SR): 12.7%
inhibition at 10 µM (U251): 17.2%
inhibition at 10 µM (SK-OV-3): 0%

COc1ccc(/C=C/C(=O)c2ccc(NC(=O)CSc3nnc(-c4ccc5[nH]c(-c6ccccc6)nc5c4)o3)cc2)cc1OC [Compound 7d, 2-{5-[2-Phenyl-1 H-benzo[d]imidazol-5-yl]-1,3,4-oxadiazol-2-ylthio}-N-{4-[(E)-3-(3,4-dimethoxyphenyl)acryloyl]phenyl}acetamide]
inhibition at 10 µM (786-0): 9.58%
inhibition at 10 µM (UACC-257): 0%
inhibition at 10 µM (SF-295): 0%
inhibition at 10 µM (NCI-H226): 0%
inhibition at 10 µM (OVCAR-8): 0%
inhibition at 10 µM (MDA-MB-468): 0%
inhibition at 10 µM (KM12): 0%
inhibition at 10 µM (CCRF-CEM): 9.62%
inhibition at 10 µM (SK-MEL-2): 0%
inhibition at 10 µM (NCI-H23): 0%
inhibition at 10 µM (BT-549): 10.4%
inhibition at 10 µM (CAKI-1): 0%
inhibition at 10 µM (OVCAR-3): 2.49%
inhibition at 10 µM (DU-145): 0%
inhibition at 10 µM (NCI-H460): 0%
inhibition at 10 µM (OVCAR-4): 0%
inhibition at 10 µM (HCT-15): 0%
inhibition at 10 µM (RPMI-8226): 14.7%
inhibition at 10 µM (HS 578T): 0%
inhibition at 10 µM (MCF7): 27.3%
inhibition at 10 µM (OVCAR-5): 0%
inhibition at 10 µM (SN12C): 0%
inhibition at 10 µM (SW-620): 0%
inhibition at 10 µM (ACHN): 0%
inhibition at 10 µM (LOX IMVI): 13.5%
inhibition at 10 µM (IGROV1): 0%
inhibition at 10 µM (PC-3): 0%
inhibition at 10 µM (HT29): 0%
inhibition at 10 µM (UO-31): 11%
inhibition at 10 µM (SR): 4.34%
inhibition at 10 µM (U251): 5.02%
inhibition at 10 µM (SK-OV-3): 0%
